Measurements taken from patent publication US9464084B2, “P2X7 modulators” (Janssen Pharmaceutica NV, priority 2013, dated 2016).

The molecules below were run against P2X7 (Homo sapiens (Human), UniProt Q99572) (assay: P2X7 antagonism in human PBMCs (LPS + Bz-ATP induced IL-1β release, ELISA)). Conditions: compound 1 μM, LPS 30 ng/ml, Bz-ATP 0.5 mM.
Format: cell-based
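Also: PBMCs from donor human blood, with a further 1.5 h incubation of the cells in the assay.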

Sequence of P2X7 (Q99572 whole entry): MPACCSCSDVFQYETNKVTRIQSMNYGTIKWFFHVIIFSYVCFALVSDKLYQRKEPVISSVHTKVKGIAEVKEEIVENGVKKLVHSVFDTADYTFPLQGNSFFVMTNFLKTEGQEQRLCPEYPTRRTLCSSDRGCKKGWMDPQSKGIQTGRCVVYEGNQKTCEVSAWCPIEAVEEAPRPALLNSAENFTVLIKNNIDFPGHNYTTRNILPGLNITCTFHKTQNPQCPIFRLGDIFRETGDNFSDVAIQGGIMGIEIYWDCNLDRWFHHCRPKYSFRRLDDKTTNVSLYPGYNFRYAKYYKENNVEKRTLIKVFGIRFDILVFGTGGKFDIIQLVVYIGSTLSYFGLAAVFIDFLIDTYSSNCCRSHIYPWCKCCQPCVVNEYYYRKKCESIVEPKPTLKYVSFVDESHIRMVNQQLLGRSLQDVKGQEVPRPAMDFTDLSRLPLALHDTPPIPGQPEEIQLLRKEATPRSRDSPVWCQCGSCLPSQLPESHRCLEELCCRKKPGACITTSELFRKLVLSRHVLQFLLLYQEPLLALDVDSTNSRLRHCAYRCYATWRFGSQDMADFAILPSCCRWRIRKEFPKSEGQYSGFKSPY

Row | PBMC 1 μM (% control) | Compound
1 | 98.9 % control | CC1(C)Cc2cccc(C(=O)N3CCc4c(ncn4-c4ccccc4)C3)c2O1 [Example 52, 5-[(2,2-Dimethyl-2,3-dihydro-1-benzofuran-7-yl)carbonyl]-1-phenyl-4,5,6,7-tetrahydro-1H-imidazo[4,5-c]pyridine]
2 | 4.3 % control | CC1c2nnn(-c3cnccn3)c2CCN1C(=O)c1cccc(C(F)(F)F)c1Cl (stereo not shown) [Example 73, 5-{[2-Chloro-3-(trifluoromethyl)phenyl]carbonyl}-4-methyl-1-pyrazin-2-yl-4,5,6,7-tetrahydro-1H-[1,2,3]triazolo[4,5-c]pyridine]
3 | 6.1 % control | O=C(c1cccc(C(F)(F)F)c1Cl)N1CCc2c(nnn2-c2cnccn2)C1 [Example 91, 5-{[2-Chloro-3-(trifluoromethyl)phenyl]carbonyl}-1-pyrazin-2-yl-4,5,6,7-tetrahydro-1H-[1,2,3]triazolo[4,5-c]pyridine]
4 | 9.2 % control | O=C(c1cccc(Cl)c1Cl)N1CCc2c(-c3ccccc3)n[nH]c2C1 [Example 100, 6-[(2,3-Dichlorophenyl)carbonyl]-3-phenyl-4,5,6,7-tetrahydro-1H-pyrazolo[3,4-c]pyridine]
5 | 18.0 % control | Cn1nc2c(c1-c1ccccc1)CCN(C(=O)c1cccc(Cl)c1Cl)C2 [Example 102, 6-[(2,3-Dichlorophenyl)carbonyl]-2-methyl-3-phenyl-4,5,6,7-tetrahydro-2H-pyrazolo[3,4-c]pyridine]
6 | 51.0 % control | Cn1nc2c(c1-c1ccc(F)cc1)CCN(C(=O)c1cccc(C(F)(F)F)c1Cl)C2 [Example 105, 6-{[2-Chloro-3-(trifluoromethyl)phenyl]carbonyl}-3-(4-fluorophenyl)-2-methyl-4,5,6,7-tetrahydro-2H-pyrazolo[3,4-c]pyridine]
7 | 24.7 % control | Cn1nc2c(c1-c1cccnc1)CCN(C(=O)c1cccc(C(F)(F)F)c1Cl)C2 [Example 107, 6-{[2-Chloro-3-(trifluoromethyl)phenyl]carbonyl}-2-methyl-3-pyridin-3-yl-4,5,6,7-tetrahydro-2H-pyrazolo[3,4-c]pyridine]
8 | 15.7 % control | Cn1nc2c(c1-c1cccnc1)CCN(C(=O)c1cccc(Cl)c1Cl)C2 [Example 111, 6-[(2,3-Dichlorophenyl)carbonyl]-2-methyl-3-pyridin-3-yl-4,5,6,7-tetrahydro-2H-pyrazolo[3,4-c]pyridine]
9 | 94.7 % control | COc1ccccc1-n1nnc2c1CCN(C(=O)c1cccc(C(F)(F)F)c1F)C2 [Example 124, (2-Fluoro-3-(trifluoromethyl)phenyl)(1-(2-methoxyphenyl)-6,7-dihydro-1H-[1,2,3]triazolo[4,5-c]pyridin-5(4H)-yl)methanone]

Same assay, conditions: compound 10 μM, LPS 30 ng/ml, Bz-ATP 0.5 mM

Row | PBMC 10 μM (% control) | Compound
10 | 5.8 % control | O=C(c1cccc(C(F)(F)F)c1Cl)N1CCc2c(nnn2-c2ncccn2)C1 [Example 65, 5-{[2-Chloro-3-(trifluoromethyl)phenyl]carbonyl}-1-pyrimidin-2-yl-4,5,6,7-tetrahydro-1H-[1,2,3]triazolo[4,5-c]pyridine]
11 | 4.6 % control | CC1c2nnn(-c3ncccn3)c2CCN1C(=O)c1cccc(C(F)(F)F)c1Cl (stereo not shown) [Example 80, 5-{[2-Chloro-3-(trifluoromethyl)phenyl]carbonyl}-4-methyl-1-pyrimidin-2-yl-4,5,6,7-tetrahydro-1H-[1,2,3]triazolo[4,5-c]pyridine]
12 | 45.3 % control | CC1Cc2c(nnn2-c2ccccn2)CN1C(=O)c1cccc(C(F)(F)F)c1Cl (stereo not shown) [Example 116, 5-{[2-Chloro-3-(trifluoromethyl)phenyl]carbonyl}-6-methyl-1-pyridin-2-yl-4,5,6,7-tetrahydro-1H-[1,2,3]triazolo[4,5-c]pyridine]
13 | 0.2 % control | CC1Cc2c(nnn2-c2ncccc2F)CN1C(=O)c1cccc(C(F)(F)F)c1Cl (stereo not shown) [Example 122, 5-{[2-Chloro-3-(trifluoromethyl)phenyl]carbonyl}-1-(3-fluoropyridin-2-yl)-6-methyl-4,5,6,7-tetrahydro-1H-[1,2,3]triazolo[4,5-c]pyridine]
14 | 28.9 % control | CC1c2nnn(-c3ncc(F)cn3)c2CCN1C(=O)c1cccc(C(F)(F)F)c1Cl (stereo not shown) [Example 153, (2-Chloro-3-(trifluoromethyl)phenyl)(1-(5-fluoropyrimidin-2-yl)-4-methyl-6,7-dihydro-1H-[1,2,3]triazolo[4,5-c]pyridin-5(4H)-yl)methanone]
15 | −0.9 % control | CC1Cc2c(nnn2-c2ncccc2F)CN1C(=O)c1cccc(Cl)c1Cl (stereo not shown) [Example 161, (2,3-Dichlorophenyl)(1-(3-fluoropyridin-2-yl)-6-methyl-6,7-dihydro-1H-[1,2,3]triazolo[4,5-c]pyridin-5(4H)-yl)methanone]
16 | 4.5 % control | CC1c2nnn(-c3ncc(F)cn3)c2CCN1C(=O)c1cccc(C(F)(F)F)c1F (stereo not shown) [Example 175, (2-fluoro-3-(trifluoromethyl)phenyl)(1-(5-fluoropyrimidin-2-yl)-4-methyl-6,7-dihydro-1H-[1,2,3]triazolo[4,5-c]pyridin-5(4H)-yl)methanone]
17 | −0.7 % control | CCc1nc2c(n1-c1ccccc1)CCN(C(=O)c1cccc(C(F)(F)F)c1Cl)C2C (stereo not shown) [Example 184, (2-Chloro-3-(trifluoromethyl)phenyl)(2-ethyl-4-methyl-1-phenyl-6,7-dihydro-1H-imidazo[4,5-c]pyridin-5(4H)-yl)methanone]
18 | 3.2 % control | CC1Cc2c(nnn2-c2ncc(F)cn2)CN1C(=O)c1cccc(C(F)(F)F)c1Cl (stereo not shown) [Example 200, 5-{[2-Chloro-3-(trifluoromethyl)phenyl]carbonyl}-1-(5-fluoropyrimidin-2-yl)-6-methyl-4,5,6,7-tetrahydro-1H-[1,2,3]triazolo[4,5-c]pyridine]
19 | 0.6 % control | CC1Cc2c(nnn2-c2ncc(F)cn2)CN1C(=O)c1cccc(Cl)c1Cl (stereo not shown) [Example 203, 5-[(2,3-Dichlorophenyl)carbonyl]-1-(5-fluoropyrimidin-2-yl)-6-methyl-4,5,6,7-tetrahydro-1H-[1,2,3]triazolo[4,5-c]pyridine]
20 | −1.0 % control | Cc1c(C(=O)N2Cc3nnn(-c4ncc(F)cn4)c3CC2C)cccc1C(F)(F)F (stereo not shown) [Example 206, 1-(5-Fluoropyrimidin-2-yl)-6-methyl-5-{[2-methyl-3-(trifluoromethyl)phenyl]carbonyl}-4,5,6,7-tetrahydro-1H-[1,2,3]triazolo[4,5-c]pyridine]
21 | −1.0 % control | CC1Cc2c(nnn2-c2cnccn2)CN1C(=O)c1cccc(C(F)(F)F)c1Cl (stereo not shown) [Example 209, 5-{[2-Chloro-3-(trifluoromethyl)phenyl]carbonyl}-6-methyl-1-pyrazin-2-yl-4,5,6,7-tetrahydro-1H-[1,2,3]triazolo[4,5-c]pyridine]
22 | 0.8 % control | CC1Cc2c(nnn2-c2cc[nH]n2)CN1C(=O)c1cccc(C(F)(F)F)c1Cl (stereo not shown) [Example 210, (2-chloro-3-(trifluoromethyl)phenyl)(6-methyl-1-(1H-pyrazol-3-yl)-6,7-dihydro-1H-[1,2,3]triazolo[4,5-c]pyridin-5(4H)-yl)methanone]
23 | 76.5 % control | C[C@@H]1Cc2c(nnn2-c2ncc(F)cn2)CN1C(=O)c1cccc(C(F)(F)F)c1F [Example 219, (6R)-1-(5-Fluoropyrimidin-2-yl)-5-{[2-fluoro-3-(trifluoromethyl)phenyl]carbonyl}-6-methyl-4,5,6,7-tetrahydro-1H-[1,2,3]triazolo[4,5-c]pyridine]
24 | 15.1 % control | C[C@H]1Cc2c(nnn2-c2ncc(F)cn2)CN1C(=O)c1cccc(C(F)(F)F)c1F [Example 220, (6S)-1-(5-Fluoropyrimidin-2-yl)-5-{[2-fluoro-3-(trifluoromethyl)phenyl]carbonyl}-6-methyl-4,5,6,7-tetrahydro-1H-[1,2,3]triazolo[4,5-c]pyridine]
25 | −0.1 % control | Cc1cccc(-n2nnc3c2CCN(C(=O)c2cccc(Cl)c2Cl)C3C)n1 (stereo not shown) [Example 233, (2,3-dichlorophenyl)(4-methyl-1-(6-methylpyridin-2-yl)-6,7-dihydro-1H-[1,2,3]triazolo[4,5-c]pyridin-5(4H)-yl)methanone]
26 | −5.1 % control | Cc1ccnc(-n2nnc3c2CCN(C(=O)c2cccc(Cl)c2Cl)C3C)c1 (stereo not shown) [Example 237, (2,3-dichlorophenyl)(4-methyl-1-(4-methylpyridin-2-yl)-6,7-dihydro-1H-[1,2,3]triazolo[4,5-c]pyridin-5(4H)-yl)methanone]
27 | −8.9 % control | CC1Cc2c(nnn2-c2ccccc2)C(C)N1C(=O)c1cccc(C(F)(F)F)c1Cl (stereo not shown) [Example 240, (2-Chloro-3-(trifluoromethyl)phenyl)(4,6-dimethyl-1-phenyl-6,7-dihydro-1H-[1,2,3]triazolo[4,5-c]pyridin-5(4H)-yl)methanone]
28 | 1.0 % control | CC1Cc2c(nnn2-c2ccc(F)cc2)C(C)N1C(=O)c1cccc(C(F)(F)F)c1Cl (stereo not shown) [Example 243, (2-Chloro-3-(trifluoromethyl)phenyl)(1-(4-fluorophenyl)-4,6-dimethyl-6,7-dihydro-1H-[1,2,3]triazolo[4,5-c]pyridin-5(4H)-yl)methanone]
29 | 7.1 % control | O=C(c1ccc(Cl)cc1Cl)N1CCc2c(nnn2-c2ncccn2)C1 [Example 257, (2,4-dichlorophenyl)(1-(pyrimidin-2-yl)-6,7-dihydro-1H-[1,2,3]triazolo[4,5-c]pyridin-5(4H)-yl)methanone]

Row | Compound | PBMC 10 μM (% control)
30 | CC1c2nnn(-c3cc[nH]n3)c2CCN1C(=O)c1cccc(C(F)(F)F)c1Cl (stereo not shown) [Example 85, 5-{[2-Chloro-3-(trifluoromethyl)phenyl]carbonyl}-4-methyl-1-(1H-pyrazol-3-yl)-4,5,6,7-tetrahydro-1H-[1,2,3]triazolo[4,5-c]pyridine] | 24.7 % control
31 | CC1Cc2c(nnn2-c2ncc(F)cn2)CN1C(=O)c1ccc(F)c(Cl)c1Cl (stereo not shown) [Example 213, 5-[(2,3-Dichloro-4-fluorophenyl)carbonyl]-1-(5-fluoropyrimidin-2-yl)-6-methyl-4,5,6,7-tetrahydro-1H-[1,2,3]triazolo[4,5-c]pyridine] | 0.3 % control
